Measured values from US20150111835A1, “MODIFIED PEPTIDES AND THEIR USE FOR TREATING AUTOIMMUNE DISEASES” (CENTRE NATIONAL DE LA RECHERECHE SCIENTIFIQUE, priority 2011, published 2015).
Where a SMILES comes first, the peptide text is derived from it. [ ]: non-standard residue; d: D form. Met(O) = CS(=O)CC[C@H](N)C(=O)O; pS = N[C@@H](COP(=O)(O)O)C(=O)O

Key:
[1] = Stability of the peptides at 37° C. in 10% (v/v) mannitol solution, HPLC peak area of intact peptide; type: physicochemical; conditions: for 95% of stability (predicted): time to 95% stability from linear equation; for Linear equation of stability (%) versus days: slope: y = stability %, x = days; for Stability (%): 10% mannitol
Experimental: The stability of the peptide SEQ ID NO: 2 in which the serine at position 10 is phosphorylated and the methionine at position 4 is oxidized (P140(MO)), and the peptide SEQ ID NO: 1 in which the serine at position 10 is phosphorylated (P140) was measured at 37° C., in a solution of 10% (v/v) mannitol. For each peptide, 3 concentrations have been tested: 200, 100 and 50 μg/mL.
At the indicated time, the integrity of P140 and P140(MO) peptides was measured in saline by high-performance liquid chromatography from the area of the peak corresponding to the intact peptide.
Stability is measured by using the HPLC peak surface.

HSC70 protein = target: T1, HSC70 protein (Bos taurus, UniProt P19120); test: BIAcore binding of peptides to immobilized HSC70; parameters: species or system bovine; conditions: for Rmax / KA / Kd / kd: 25° C., 1:1 Langmuir model; for Rmax: global fit; for KA / Kd / kd: same value given at each analyte concentration
T1 construct: purchased Stressgen
Experimental: BIAcore 3000 system (Biacore AB) was used to evaluate the binding of P140 peptides to HSC70 protein (Page et al., 2009, and 2011). Sensor chip CMS, surfactant P20, amine coupling kit containing N-hydroxysuccinimide (NHS) and N-ethyl-N′-dimethylaminopropyl carbodiimide (EDC), 2-(2-pyridinyldithio)ethaneamine (PDEA) and ethanolamine were from Biacore AB. Biosensor assays were performed with HBS-EP buffer as running buffer (10 mM HEPES, 150 mM NaCl, 3 mM EDTA, 0.005% surfactant P20, pH 7.4). The compounds were diluted in the running buffer. The sensor chip surface was regenerated after each experiment by injecting 10 μL of 10 mM HCl. Recombinant bovine HSC70 (Stressgen) was immobilized on flow cells of a CMS sensor chip through its thiol groups using 35 μL PDEA in 50 mM borate buffer, pH 8.3 on the NHS/EDC-activated matrix. Then, 35 μL of HSC70 (100 μg/mL in formate buffer, pH 4.3) were injected until a response of 13,000 response units (RU) corresponding to 13 ng/mm^2 of HSC70 was immobilized. Twenty μL of a 50 mM cysteine/1 M NaCl solution was used to saturate unoccupied sites on the chip. The direct binding measurement of P140 peptides to HSC70 was carried out at 25° C. with a constant flow rate of 20 μL/min. P140 peptide and analogues were injected in the flux at different concentrations for 3 min, followed by a dissociation phase of 3 min. The kinetic parameters were calculated using the BIAeval 3.1 software on a personal computer. Analysis was performed using the simple 1:1 Langmuir binding model. The specific binding profiles were obtained after subtracting the response signal from the control empty channel and from blank-buffer injection. The fitting to each model was judged by the χ^2 value and randomness of residue distribution compared to the theoretical model.

MRL/lpr mice [2] = test: Survival analysis in MRL/lpr lupus mice; type: in vivo, mouse; conditions: female MRL/lpr mice, intravenous, from 5 weeks of age; NaCl control = 25 weeks
Experimental: (§1) Statistical tests were performed using GraphPad Prism version 5.0. The two-way ANOVA test was used to analyze statistical significance of proteinuria differences between control and peptide-treated groups of mice. Survival of control and P140 analogue-treated female MRL/lpr mice was analyzed by the Kaplan-Meier method, and the significance of differences was determined by the log-rank test. For the other variables, statistical significance was assessed using the Student's t-test. p values less than 0.05 were considered significant.
It has been determined that this mouse strain carries a mutation in the fas gene. Also, the MRL/lpr is a useful model to study behavioural and cognitive deficits found in autoimmune diseases and the efficacy of immunosuppressive agents [Monneaux et al., 2003, Eur. J. Immunol. 33,287-296].
Five-week-old female MRL/lpr mice received P140 or peptide P140(MO) intravenously as described (Monneaux et al., 2003, Eur. J. Immunol. 33,287-296). All experimental protocols were carried out with the approval of the local Institutional Animal Care and Use Committee (CREMEAS). As control, mice were injected with NaCl.
Twenty mice were used for each peptide or NaCl.

MRL/lpr mice [3] = test: Cellularity analysis (peripheral blood leucocytes) in MRL/lpr mice; type: in vivo, mouse; conditions: 100 μg/100 μL single injection, peripheral blood 5 days after, efficacy at least similar to P140
Experimental: MRL/lpr mice were injected with 100 μg/100 μL of P140 or P140(MO) and cellularity (peripheral blood) was studied 5 days after this unique injection. The count includes all the leucocytes. In view of the low number of tested mice, a non parametric statistical test has been realised Mann-Whitney).

MRL/lpr mice [4] = test: Proteinuria analysis in MRL/lpr mice (Albustix); type: in vivo, mouse; conditions: fresh urine, Albustix score over time (FIG. 3)
Experimental: as §1
Proteinuria of the above mice was measured in fresh urine using Albustix (Bayer Diagnostics) and was semi-quantitatively estimated according to a […] recommended by the manufacturer (no proteinuria=0; traces=1; 1+=2; 2+=3; 3+=4; 4+=5).

T1 sequence (P19120 whole entry): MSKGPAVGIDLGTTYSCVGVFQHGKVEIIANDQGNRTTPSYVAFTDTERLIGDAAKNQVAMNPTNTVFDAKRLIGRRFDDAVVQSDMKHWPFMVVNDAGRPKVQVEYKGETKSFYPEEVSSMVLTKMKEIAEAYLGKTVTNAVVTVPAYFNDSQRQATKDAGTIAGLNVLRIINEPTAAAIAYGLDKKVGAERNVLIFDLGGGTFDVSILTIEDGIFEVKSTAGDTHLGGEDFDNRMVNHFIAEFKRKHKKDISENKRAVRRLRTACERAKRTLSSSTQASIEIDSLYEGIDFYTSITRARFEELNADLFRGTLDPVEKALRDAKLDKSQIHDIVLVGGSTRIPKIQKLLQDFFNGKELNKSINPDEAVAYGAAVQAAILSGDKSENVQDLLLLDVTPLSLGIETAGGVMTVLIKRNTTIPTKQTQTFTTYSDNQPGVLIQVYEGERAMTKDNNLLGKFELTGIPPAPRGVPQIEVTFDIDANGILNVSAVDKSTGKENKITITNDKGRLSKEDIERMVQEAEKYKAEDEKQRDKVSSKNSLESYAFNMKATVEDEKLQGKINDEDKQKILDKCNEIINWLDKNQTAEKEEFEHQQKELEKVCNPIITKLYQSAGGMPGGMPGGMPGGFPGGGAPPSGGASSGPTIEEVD

SMILES	95% of stability (predicted) ([1]; 50 μg/mL, 37° C.)	Linear equation of stability (%) versus days: slope ([1]; 50 μg/mL, 37° C.)	Stability (%) ([1]; 50 μg/mL, day 0, 37° C.)	Stability (%) ([1]; 50 μg/mL, day 20, 37° C.)	Stability (%) ([1]; 50 μg/mL, day 40, 37° C.)	Stability (%) ([1]; 50 μg/mL, day 100, 37° C.)	Linear equation of stability (%) versus days: slope ([1]; 100 μg/mL, 37° C.)	Stability (%) ([1]; 100 μg/mL, day 0, 37° C.)	Stability (%) ([1]; 100 μg/mL, day 20, 37° C.)	Stability (%) ([1]; 100 μg/mL, day 40, 37° C.)	Stability (%) ([1]; 100 μg/mL, day 100, 37° C.)	95% of stability (predicted) ([1]; 200 μg/mL, 37° C.)	Stability (%) ([1]; 200 μg/mL, day 0, 37° C.)	Stability (%) ([1]; 200 μg/mL, day 20, 37° C.)	Stability (%) ([1]; 200 μg/mL, day 40, 37° C.)	Stability (%) ([1]; 200 μg/mL, day 100, 37° C.)	Rmax (HSC70 protein; BIAcore)	KA (HSC70 protein; BIAcore)	Kd (HSC70 protein; BIAcore)	kd (HSC70 protein; BIAcore)	other results
CC[C@H](C)[C@H](NC(=O)[C@H](Cc1ccccc1)NC(=O)[C@H](C)NC(=O)[C@H](Cc1ccc(O)cc1)NC(=O)CNC(=O)[C@H](CCCNC(=N)N)NC(=O)[C@@H]1CCCN1C(=O)[C@H](CCCCN)NC(=O)CNC(=O)[C@H](COP(=O)(O)O)NC(=O)[C@H](CCCNC(=N)N)NC(=O)[C@H](CCCCN)NC(=O)[C@H](CO)NC(=O)[C@H](Cc1ccc(O)cc1)NC(=O)[C@@H](NC(=O)[C@H](CCSC)NC(=O)[C@H](Cc1c[nH]cn1)NC(=O)[C@@H](NC(=O)[C@@H](N)CCCNC(=N)N)[C@@H](C)CC)C(C)C)C(=O)N[C@@H](CCC(=O)O)C(=O)N[C@@H](Cc1ccc(O)cc1)C(=O)O [Compound P140] (H-RIHMVYSKR[pS]GKPRGYAFIEY-OH)	1 months	y = −0.099x +	100%	95.5%	93.2%	89.6%	y = −0.0612x +	100%	97.5%	96.2%	93.4%	6 months	100%	98.7%	98.5%	97.4%	83.3 RU	144000 M⁻¹	6.94 µM	0.00312 s⁻¹	Stability (%) ([1]; 50 μg/mL, day 60, 37° C.): 91.5%; Stability (%) ([1]; 50 μg/mL, day 80, 37° C.): 90.3%; 95% of stability (predicted) ([1]; 100 μg/mL, 37° C.): 2 months; Stability (%) ([1]; 100 μg/mL, day 60, 37° C.): 95.5%; Stability (%) ([1]; 100 μg/mL, day 80, 37° C.): 94.5%; Linear equation of stability (%) versus days: slope ([1]; 200 μg/mL, 37° C.): y = −0.0238x +; Stability (%) ([1]; 200 μg/mL, day 60, 37° C.): 97.9%; Stability (%) ([1]; 200 μg/mL, day 80, 37° C.): 97.6%; Req (HSC70 protein; peptide 1.56 μM): 15.3 RU; kobs (HSC70 protein; peptide 1.56 μM): 0.00382 s⁻¹; Req (HSC70 protein; peptide 3.12 μM): 25.8 RU; kobs (HSC70 protein; peptide 3.12 μM): 0.00452 s⁻¹; Req (HSC70 protein; peptide 6.25 μM): 39.5 RU; kobs (HSC70 protein; peptide 6.25 μM): 0.00593 s⁻¹; Req (HSC70 protein; peptide 12.5 μM): 53.6 RU; kobs (HSC70 protein; peptide 12.5 μM): 0.00874 s⁻¹; Req (HSC70 protein; peptide 25 μM): 65.2 RU; kobs (HSC70 protein; peptide 25 μM): 0.0144 s⁻¹; Median survival (MRL/lpr mice [2]): 29 weeks
CC[C@H](C)[C@H](NC(=O)[C@H](Cc1ccccc1)NC(=O)[C@H](C)NC(=O)[C@H](Cc1ccc(O)cc1)NC(=O)CNC(=O)[C@H](CCCNC(=N)N)NC(=O)[C@@H]1CCCN1C(=O)[C@H](CCCCN)NC(=O)CNC(=O)[C@H](COP(=O)(O)O)NC(=O)[C@H](CCCNC(=N)N)NC(=O)[C@H](CCCCN)NC(=O)[C@H](CO)NC(=O)[C@H](Cc1ccc(O)cc1)NC(=O)[C@@H](NC(=O)[C@H](CC[S+](C)[O-])NC(=O)[C@H](Cc1c[nH]cn1)NC(=O)[C@@H](NC(=O)[C@@H](N)CCCNC(=N)N)[C@@H](C)CC)C(C)C)C(=O)N[C@@H](CCC(=O)O)C(=O)N[C@@H](Cc1ccc(O)cc1)C(=O)O (some centres unmarked) [P140(MO), RIHM(O)VYSKRS(PO3H2)GKPRGYAFIEY] (H-RIH[Met(O)]VYSKR[pS]GKPRGYAFIEY-OH)	2 years	y = −0.0064x +	100%	100%	100%	99.4%	y = −0.0064x +	100%	99.1%	99.5%	99.1%	∞	100%	100%	100%	100%	39 RU	524000 M⁻¹	1.91 µM	0.0022 s⁻¹	Peripheral hypercellularity (MRL/lpr mice [3]): able to decrease peripheral hypercellularity; Proteinuria compared to untreated mice (MRL/lpr mice [4]): less important and appears lately; Stability over 100 days (in words) ([1]; all tested concentrations (50 to 200 μg/ml), 37° C.): stable; Affinity for HSC70 compared with P140 (non-oxidized counterpart) (HSC70 protein; BIAcore): not statistically different; Req (HSC70 protein; peptide 1.56 μM): 17.6 RU; kobs (HSC70 protein; peptide 1.56 μM): 0.004 s⁻¹; Req (HSC70 protein; peptide 3.12 μM): 24.2 RU; kobs (HSC70 protein; peptide 3.12 μM): 0.0058 s⁻¹; Req (HSC70 protein; peptide 6.25 μM): 29.9 RU; kobs (HSC70 protein; peptide 6.25 μM): 0.0094 s⁻¹; Req (HSC70 protein; peptide 12.5 μM): 33.9 RU; kobs (HSC70 protein; peptide 12.5 μM): 0.0166 s⁻¹; Req (HSC70 protein; peptide 25 μM): 36.3 RU; kobs (HSC70 protein; peptide 25 μM): 0.031 s⁻¹; Median survival (MRL/lpr mice [2]): > 40 weeks
